Measurements as given in US20110039763A1, “TARGETED ANTIMICROBIAL MOIETIES” (C3 JIAN, INC., priority 2009, published 2011).
Entries after “also recorded” stand apart in the source; their conditions may differ.

Each substance was assayed on microorganisms (assay: Targeting peptide binding to target microorganisms (Tables 3, 10, 12)). Details: peptide binding in aqueous buffers that varied with peptide solubility; preferably 1x PBS.
In the case of “1T-77 (EMRISRIILDFLFLRKK; Peptide with targeting and/or antimicrobial activity)”, the “Target(s) (microorganism bound by the targeting peptide)” value is reported as “S. pneumoniae”. “1T-78 (FFKTIFVLILGALGVAAGLYIEKNYIDK; Peptide with targeting and/or antimicrobial activity)” was tested, and the “Target(s) (microorganism bound by the targeting peptide)” value was “S. pneumoniae”. With “1T-79 (FGTPWSITNFWKKNFNDRPDFDSDRRRY; Peptide with targeting and/or antimicrobial activity)” the “Target(s) (microorganism bound by the targeting peptide)” value was “S. pneumoniae”. For “1T-80 (GGNLGPGFGVIIP; Peptide with targeting and/or antimicrobial activity)”, the “Target(s) (microorganism bound by the targeting peptide)” value was “S. pneumoniae”. “1T-81 (AIATGLDIVDGKFDGYLWA; Peptide with targeting and/or antimicrobial activity)” was tested, and the “Target(s) (microorganism bound by the targeting peptide)” value was “S. pneumoniae”. “1T-82 (FGVGVGIALFMAGYAIGKDLRKKFGKSC; Peptide with targeting and/or antimicrobial activity)” was tested, and the “Target(s) (microorganism bound by the targeting peptide)” value was “S. pneumoniae”. In the case of “1T-83 (QKPRKNETFIGYIQRYDIDGNGYQSLPCPQN; Peptide with targeting and/or antimicrobial activity)”, the “Target(s) (microorganism bound by the targeting peptide)” value is reported as “S. pneumoniae”. For “1T-84 (FRKKRYGLSILLWLNAFTNLVNSIHAFYMTLF; Peptide with targeting and/or antimicrobial activity)”, the “Target(s) (microorganism bound by the targeting peptide)” value was “S. pneumoniae”. For “1T-86 (HRKNPVLGVGRRHRAHNVA; Peptide with targeting and/or antimicrobial activity)”, the “Target(s) (microorganism bound by the targeting peptide)” value was “S. mitis; also recorded: S. oralis; also recorded: S. salivarious”. “1T-87 (EAVGQDLVDAHHP; Peptide with targeting and/or antimicrobial activity)” was tested, and the “Target(s) (microorganism bound by the targeting peptide)” value was “S. mitis; also recorded: S. mutans; also recorded: S. oralis”. For “1T-89 (HEDDKRRGMSVEVLGFEVVQHEE; Peptide with targeting and/or antimicrobial activity)”, the “Target(s) (microorganism bound by the targeting peptide)” value was “S. mitis; also recorded: S. mutans”. With “1T-90 (RNVIGQVL; Peptide with targeting and/or antimicrobial activity)” the “Target(s) (microorganism bound by the targeting peptide)” value was “S. gordonii; also recorded: S. mitis; also recorded: S. mutans; also recorded: S. oralis; also recorded: S. sanguinis”. For “1T-91 (TSVRPGAAGAAVPAGAAGAAGAGWRWP; Peptide with targeting and/or antimicrobial activity)”, the “Target(s) (microorganism bound by the targeting peptide)” value was “S. mitis; also recorded: S. mutans; also recorded: S. oralis; also recorded: S. sanguinis”. In the case of “1T-92 (GQDEGQRRAGVGEGQGVDG; Peptide with targeting and/or antimicrobial activity)”, the “Target(s) (microorganism bound by the targeting peptide)” value is reported as “S. mitis; also recorded: S. mutans”. “1T-93 (AMRSVNQA; Peptide with targeting and/or antimicrobial activity)” was tested, and the “Target(s) (microorganism bound by the targeting peptide)” value was “S. epidermidis; also recorded: S. gordonii; also recorded: S. mitis; also recorded: S. mutans; also recorded: S. oralis; also recorded: S. sanguinis”. With “1T-94 (DQVAHSGDMLVQARRRDS; Peptide with targeting and/or antimicrobial activity)” the “Target(s) (microorganism bound by the targeting peptide)” value was “S. mitis; also recorded: S. mutans; also recorded: S. oralis”. With “1T-95 (GHLLRVGGRVGGVGGVAGACAQPFGGQ; Peptide with targeting and/or antimicrobial activity)” the “Target(s) (microorganism bound by the targeting peptide)” value was “S. gordonii; also recorded: S. mitis; also recorded: S. mutans; also recorded: S. oralis; also recorded: S. sanguinis”. “1T-96 (VAGACAQPFGGQ; Peptide with targeting and/or antimicrobial activity)” was tested, and the “Target(s) (microorganism bound by the targeting peptide)” value was “S. gordonii; also recorded: S. mitis; also recorded: S. mutans; also recorded: S. oralis; also recorded: S. sanguinis”. In the case of “1T-99 (MKAWLGQ; Peptide with targeting and/or antimicrobial activity)”, the “Target(s) (microorganism bound by the targeting peptide)” value is reported as “S. gordonii; also recorded: S. mitis; also recorded: S. mutans; also recorded: S. oralis; also recorded: S. sanguinis”. In the case of “1T-100 (LDPLEPRIAPPGDRSHQGAPACHRDPLRGRSARDAER; Peptide with targeting and/or antimicrobial activity)”, the “Target(s) (microorganism bound by the targeting peptide)” value is reported as “S. gordonii; also recorded: S. mitis; also recorded: S. mutans”. “1T-101 (RLRVGRATDLPLTSFAVGVVRNLPDAPAH; Peptide with targeting and/or antimicrobial activity)” was tested, and the “Target(s) (microorganism bound by the targeting peptide)” value was “A. naeslundii; also recorded: P. gingivalis; also recorded: S. epidermidis; also recorded: S. gordonii; also recorded: S. mitis; also recorded: S. mutans; also recorded: S. oralis; also recorded: S. sanguinis”. With “1T-104 (RAVAAHLQGRHHGHQVRRQRHGQR; Peptide with targeting and/or antimicrobial activity)” the “Target(s) (microorganism bound by the targeting peptide)” value was “S. mitis”. “1T-105 (GEGLPPPVLHLPPPRMSGR; Peptide with targeting and/or antimicrobial activity)” was tested, and the “Target(s) (microorganism bound by the targeting peptide)” value was “S. epidermidis; also recorded: S. gordonii; also recorded: S. mitis; also recorded: S. mutans; also recorded: S. oralis”. In the case of “1T-106 (DALRRSRSQGRRHR; Peptide with targeting and/or antimicrobial activity)”, the “Target(s) (microorganism bound by the targeting peptide)” value is reported as “S. gordonii; also recorded: S. mitis; also recorded: S. mutans; also recorded: S. oralis; also recorded: S. salivarious”. For “1T-107 (SPVPRFTAVGGVSRGSP; Peptide with targeting and/or antimicrobial activity)”, the “Target(s) (microorganism bound by the targeting peptide)” value was “A. naeslundii; also recorded: S. epidermidis; also recorded: S. gordonii; also recorded: S. mitis; also recorded: S. mutans; also recorded: S. oralis; also recorded: S. salivarious; also recorded: S. sanguinis”. “1T-108 (WGPLGPERPLW; Peptide with targeting and/or antimicrobial activity)” was tested, and the “Target(s) (microorganism bound by the targeting peptide)” value was “S. gordonii; also recorded: S. mitis; also recorded: S. mutans; also recorded: S. oralis; also recorded: S. salivarious; also recorded: S. sanguinis”. “1T-109 (VTTNVRQGAGS; Peptide with targeting and/or antimicrobial activity)” was tested, and the “Target(s) (microorganism bound by the targeting peptide)” value was “A. naeslundii; also recorded: S. epidermidis; also recorded: S. gordonii; also recorded: S. mitis; also recorded: S. mutans; also recorded: S. oralis; also recorded: S. salivarious; also recorded: S. sanguinis”. For “1T-110 (LAAKTAVCVGRAFM; Peptide with targeting and/or antimicrobial activity)”, the “Target(s) (microorganism bound by the targeting peptide)” value was “A. naeslundii; also recorded: P. gingivalis; also recorded: S. epidermidis; also recorded: S. gordonii; also recorded: S. mitis; also recorded: S. mutans; also recorded: S. oralis; also recorded: S. sanguinis”. In the case of “1T-112 (SDNDGKLILGTSQ; Peptide with targeting and/or antimicrobial activity)”, the “Target(s) (microorganism bound by the targeting peptide)” value is reported as “S. gordonii”. “1T-113 (HGAHQRTGQRLHHHRGRTVSGCRQNPVAGVDPDEHR; Peptide with targeting and/or antimicrobial activity)” was tested, and the “Target(s) (microorganism bound by the targeting peptide)” value was “S. mitis”. In the case of “1T-114 (RQAPGPGLVTITAACSAPGSRSR; Peptide with targeting and/or antimicrobial activity)”, the “Target(s) (microorganism bound by the targeting peptide)” value is reported as “A. naeslundii; also recorded: P. gingivalis; also recorded: S. epidermidis; also recorded: S. gordonii; also recorded: S. mitis; also recorded: S. mutans; also recorded: S. oralis; also recorded: S. sanguinis”. “1T-117 (GPGVVGPAPFSRLPAHALNL; Peptide with targeting and/or antimicrobial activity)” was tested, and the “Target(s) (microorganism bound by the targeting peptide)” value was “S. mutans”. With “1T-119 (SPATQKAPTRAQPSRAPVQDCGDGRPTAAPDDVERLSPR; Peptide with targeting and/or antimicrobial activity)” the “Target(s) (microorganism bound by the targeting peptide)” value was “S. gordonii; also recorded: S. mitis; also recorded: S. mutans; also recorded: S. oralis”. For “1T-121 (FAKETGFGIGGAQEGWWIIADIYGPNPF; Peptide with targeting and/or antimicrobial activity)”, the “Target(s) (microorganism bound by the targeting peptide)” value was “S. gordonii; also recorded: S. mitis; also recorded: S. mutans; also recorded: S. oralis; also recorded: S. salivarious; also recorded: S. sanguinis”. In the case of “1T-122 (GAIPDPVTHRVDWEEDHQTRPSR; Peptide with targeting and/or antimicrobial activity)”, the “Target(s) (microorganism bound by the targeting peptide)” value is reported as “S. mitis”. For “1T-123 (LVRRNAVAGRSDGLAGAEQLDLVRLQGVL; Peptide with targeting and/or antimicrobial activity)”, the “Target(s) (microorganism bound by the targeting peptide)” value was “S. gordonii”. “1T-124 (LFDERNKIA; Peptide with targeting and/or antimicrobial activity)” was tested, and the “Target(s) (microorganism bound by the targeting peptide)” value was “S. mitis; also recorded: S. mutans; also recorded: S. oralis”. “1T-125 (DAITGGNPPLSDTDGLRP; Peptide with targeting and/or antimicrobial activity)” was tested, and the “Target(s) (microorganism bound by the targeting peptide)” value was “S. epidermidis; also recorded: S. gordonii; also recorded: S. mutans; also recorded: S. oralis”. With “1T-126 (QGLARPVLRRIPL; Peptide with targeting and/or antimicrobial activity)” the “Target(s) (microorganism bound by the targeting peptide)” value was “S. gordonii; also recorded: S. mitis; also recorded: S. mutans”. With “1T-139 (AVAGAAVGALLGNDARSTAVGAAIGGALGAGAGELTKNK; Peptide with targeting and/or antimicrobial activity)” the “Target(s) (microorganism bound by the targeting peptide)” value was “A. naeslundii; also recorded: S. gordonii; also recorded: S. mitis; also recorded: S. mutans; also recorded: S. oralis”. In the case of “1T-141 (KKFIILLFILVQGLIFSATKTLSDIIAL; Peptide with targeting and/or antimicrobial activity)”, the “Target(s) (microorganism bound by the targeting peptide)” value is reported as “F. nucleatum; also recorded: P. gingivalis; also recorded: S. epidermidis; also recorded: S. gordonii; also recorded: S. mitis; also recorded: S. mutans; also recorded: S. oralis; also recorded: S. sanguinis”. “1T-145 (VEAGKRNISLENIEKISKGLGISISELFKYIEEGEDKIG; Peptide with targeting and/or antimicrobial activity)” was tested, and the “Target(s) (microorganism bound by the targeting peptide)” value was “S. mitis; also recorded: S. mutans; also recorded: S. oralis”. In the case of “1T-154 (YFSFLEIVGMARR; Peptide with targeting and/or antimicrobial activity)”, the “Target(s) (microorganism bound by the targeting peptide)” value is reported as “P. gingivalis”.
